Assay results taken from patent US12116358B2, “Substituted indoles and methods of use thereof” (EPIZYME, INC., priority 2018, dated 2024).

molecular target: T1, SETD2(1434-1711) (Homo sapiens, UniProt Q9BYW2); assay: SETD2 (1434-1711) assay; assay type: biochemical; details: read-out: SETD2 (1434-1711)
T1 construct: SETD2 (1434-1711) Assay; catalogue N/A
T1 sequence (Q9BYW2 1434-1711): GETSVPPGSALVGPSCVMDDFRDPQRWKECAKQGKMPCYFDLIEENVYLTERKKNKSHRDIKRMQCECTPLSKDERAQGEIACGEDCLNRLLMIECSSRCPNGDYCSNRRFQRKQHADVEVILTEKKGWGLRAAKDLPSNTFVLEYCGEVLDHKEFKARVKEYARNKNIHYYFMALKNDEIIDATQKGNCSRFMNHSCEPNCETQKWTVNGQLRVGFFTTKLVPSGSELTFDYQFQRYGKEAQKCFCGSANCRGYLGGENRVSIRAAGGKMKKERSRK

Structure (SMILES) | IC50
Cc1ccc(F)c2cc(C(=O)Nc3cccc(-c4nnco4)c3)[nH]c12 [Cpd. No. 60, N-(3-(1,3,4-oxadiazol-2-yl)phenyl)-4-fluoro-7-methyl-1H-indole-2-carboxamide] | 30 nM
Cc1ccc(F)c2cc(C(=O)Nc3cc(F)cc4cnccc34)[nH]c12 [Cpd. No. 82, 4-fluoro-N-(7-fluoroisoquinolin-5-yl)-7-methyl-1H-indole-2-carboxamide] | 40 nM
Cc1cccnc1C(Cc1cnn(C)c1)NC(=O)c1cc2c(F)ccc(C)c2[nH]1 (stereo not drawn) [Cpd. No. 85, 4-fluoro-7-methyl-N-(2-(1-methyl-1H-pyrazol-4-yl)-1-(3-methylpyridin-2-yl)ethyl)-1H-indole-2-carboxamide] | 40 nM
Cc1cc(Cn2ccnc2)cnc1C(NC(=O)c1cc2c(F)ccc(C)c2[nH]1)C1CC1 (stereo not drawn) [Cpd. No. 161, N-((5-((1H-imidazol-1-yl)methyl)-3-methylpyridin-2-yl)(cyclopropyl)methyl)-4-fluoro-7-methyl-1H-indole-2-carboxamide] | 30 nM
Cc1ccc(F)c2cc(C(=O)Nc3cccc4c3cnn4[C@H]3CC[C@H](N(C)C)CC3)[nH]c12 [Cpd. No. 213, N-(1-((1r,4r)-4-(dimethylamino)cyclohexyl)-1H-indazol-4-yl)-4-fluoro-7-methyl-1H-indole-2-carboxamide] | 7 nM
Cc1cccc2cc(C(=O)N3CCC4(CCc5ccccc54)C3)[nH]c12 (stereo not drawn) [compound 820] | > 200000 nM
Cc1cccnc1C(NC(=O)c1cc2cccc(CC3CCC3)c2[nH]1)C1CC1 (stereo not drawn) [compound 821] | > 200000 nM
Cc1ccc(F)c2cc(C(=O)N[C@@H]3CCC[C@@H](N4CCCNC(=O)C4)C3)[nH]c12 [compound 822] | 8300 nM
CCOC(=O)N1CCN([C@@H]2CCC[C@@H](NC(=O)c3cc4c(F)ccc(C)c4[nH]3)C2)CC1 [compound 825] | 1200 nM
Cc1ccc(F)c2cc(C(=O)N[C@@H]3CCC[C@@H](N4CCN(CC(F)(F)F)CC4)C3)[nH]c12 [compound 827] | 7600 nM
Cc1ccc(F)c2cc(C(=O)N[C@@H]3CCC[C@@H](N4CCN(C(=O)N5CCOCC5)CC4)C3)[nH]c12 [compound 829] | 1500 nM
Cc1ccc(F)c2cc(C(=O)N[C@@H]3CCC[C@H](N4CCN(C(=O)C5CC5)CC4)C3)[nH]c12 [compound 830] | 40 nM
Cc1ccc(F)c2cc(C(=O)N[C@@H]3CCC[C@@H](N4CCN(C(=O)C5CC5)CC4)C3)[nH]c12 [compound 831] | 2300 nM
Cc1ccc(F)c2cc(C(=O)N[C@@H]3CCCC(N4CCC(=O)N(C)CC4)C3)[nH]c12 (stereo partly drawn) [compound 832] | 600 nM
CC(=O)NC1CCN([C@@H]2CCC[C@@H](NC(=O)c3cc4c(F)ccc(C)c4[nH]3)C2)C1 (stereo partly drawn) [compound 834] | 5000 nM
CCN1CCN(C2CCCC(NC(=O)c3cc4c(F)ccc(C)c4[nH]3)C2)CC1=O (stereo not drawn) [compound 835] | 100 nM
CCN1CCN([C@@H]2CCC[C@@H](NC(=O)c3cc4c(F)ccc(C)c4[nH]3)C2)CC1=O [compound 836] | 4000 nM
Cc1ccc(F)c2cc(C(=O)N[C@@H]3CCC[C@@H](N4CCn5ccnc5C4)C3)[nH]c12 [compound 853] | 9700 nM
Cc1ccc(F)c2cc(C(=O)NC3CCCC(N4CCn5c(n[nH]c5=O)C4)C3)[nH]c12 (stereo not drawn) [compound 1106] | 3000 nM
Cc1cccc2cc(C(=O)NCc3ccccc3Cl)[nH]c12 [compound 1153] | > 200000 nM
Cc1cccc2cc(C(=O)NC(C)c3ccc(-n4cncn4)cc3)[nH]c12 (stereo not drawn) [compound 1155] | 17200 nM

test system: H3K36me3 in A549 cells; assay: In-Cell Western (ICW) assay of SETD2 inhibitors (A549 assay); assay type: cell-based, human; details: A549 cells; read-out: SETD2 A549
Method: In-Cell Western (ICW) Assay of SETD2 Inhibitors (A549 Assay)
Representative Compounds of the Disclosure were tested in the A549 assay according the following protocol.
1. Reagents and Consumables:
Prepare plates with compounds. Seed A549 cells to the plates with compounds, 4,000 cells/well, 50 μl/well. Put the plates at room temperature on a non-vibrating surface for 20 minutes before placing in the incubator. Incubate the plate at 37° C. incubator with CO2 for 3 days. Remove plate from incubator and bring to room temperature. Blot media out of the plate and add 50 μL of ice cold 100% methanol. Incubate 30 minutes at room temperature. Remove methanol by aspiration. Wash 3× with PBST. Add 50 μL of Blocking Buffer+0.1% Tween 20. Incubate 1 hour. Remove Blocking Buffer, wash 3× with PBST. Add 20 μL of H3K36me3 (1:1000 dilution). […] Incubate overnight at 4° C. Wash plate 5× with PBS-T. Add 20 μL of DRAQ5 (1:1000) and IRDye 800CW Goat anti-Rabbit IgG (1:500). Incubate for 1 hour in the dark. Wash plate 5× with PBS-T. Wash plate 3× with water. Dry by blotting on paper towel, then centrifuge plate upside down on a thin layer of paper towels for 1 minute at 1000 rpm to remove excess reagent. Leave plate uncovered for ˜10 minutes out of direct light before reading. Read on Licor instrument.
4. Licor Instrument Settings:
Preset: Plate; Resolution: 84 μm; Quality: low; Focus offset: 4.0; 700 channel intensity: 2; and 800 channel intensity: 3.

Structure (SMILES) | IC50
Cc1ccc(F)c2cc(C(=O)NC3CCCC(N4CCOCC4)C3)[nH]c12 (stereo not drawn) [compound 374] | > 2000 nM
Cc1ccc(F)c2cc(C(=O)NC3CCCC(N4CCOCC4)C3)[nH]c12 (stereo not drawn) [compound 381] | > 2000 nM
Cc1ccc(F)c2cc(C(=O)NC3CCCC(N4CCN(C)C(=O)C4)C3)[nH]c12 (stereo not drawn) [compound 382] | > 2000 nM
Cc1cccc2cc(C(=O)NCc3ccccc3N3CCCC3)[nH]c12 [compound 528] | 24600 nM
Cc1cccnc1C(NC(=O)c1cc2nccc(C)c2[nH]1)C1CC1 (stereo not drawn) [compound 599] | > 25000 nM
Cc1cccnc1[C@@H](NC(=O)c1cc2cccc(C)c2[nH]1)C1CC1 [compound 613] | > 25000 nM
CC(=O)N(C)[C@@H]1CCN([C@@H]2CCC[C@@H](NC(=O)c3cc4c(F)ccc(C)c4[nH]3)C2)C1 [compound 849] | > 2000 nM
Cc1ccc(F)c2cc(C(=O)N[C@@H]3CCC[C@@H](N4CCN(S(C)(=O)=O)CC4)C3)[nH]c12 [compound 851] | > 2000 nM
Cc1ccc(F)c2cc(C(=O)NC3CCCC(N4CCN5C(=O)CCC5C4)C3)[nH]c12 (stereo not drawn) [compound 863] | 20 nM
Cc1ccc(F)c2cc(C(=O)N[C@@H]3CCC[C@@H](N4CCN5C(=O)CCC5C4)C3)[nH]c12 (stereo partly drawn) [compound 864] | 1200 nM
Cc1ccc(F)c2cc(C(=O)NC3CCCC(N4CCN5C(=O)CCC5C4)C3)[nH]c12 (stereo not drawn) [compound 920] | 100 nM
Cc1ccc(F)c2cc(C(=O)N[C@@H]3CCC[C@@H](N4CCN5C(=O)CC[C@@H]5C4)C3)[nH]c12 [compound 921] | 1000 nM
Cc1ccc(F)c2cc(C(=O)NC3CCCC(N4CCN5C(=O)CCC5C4)C3)[nH]c12 (stereo not drawn) [compound 922] | 10 nM
Cc1ccc(F)c2cc(C(=O)NC3CCCC(c4nnc(CN(C)C)o4)C3)[nH]c12 (stereo not drawn) [compound 954] | > 2000 nM
Cc1ccc(F)c2cc(C(=O)Nc3ncc(C4CCN(C)CC4)n3C)[nH]c12 [compound 1159] | > 25000 nM
CC(=O)N1CCC2CN(C3CCCC(NC(=O)c4cc5c(F)ccc(C)c5[nH]4)C3)CC21 (stereo not drawn) [compound 1181] | > 2000 nM
CC(=O)N1CCC2CN(C3CCCC(NC(=O)c4cc5c(F)ccc(C)c5[nH]4)C3)CC21 (stereo not drawn) [compound 1183] | > 2000 nM
CC(=O)N1CCC2C1CCN2C1CCCC(NC(=O)c2cc3c(F)ccc(C)c3[nH]2)C1 (stereo not drawn) [compound 1184] | 5 nM
CC(=O)N1CCC2C1CCN2C1CCCC(NC(=O)c2cc3c(F)ccc(C)c3[nH]2)C1 (stereo not drawn) [compound 1185] | 70 nM
CC(=O)N1CCC2C1CCN2C1CCCC(NC(=O)c2cc3c(F)ccc(C)c3[nH]2)C1 (stereo not drawn) [compound 1186] | > 2000 nM
CC(=O)N1CCC2C1CCN2C1CCCC(NC(=O)c2cc3c(F)ccc(C)c3[nH]2)C1 (stereo not drawn) [compound 1187] | > 2000 nM

same assay, conditions: Homo sapiens, A549, read-out: SETD2 A549

Structure (SMILES) | IC50
Cc1ccc(F)c2cc(C(=O)N[C@@H]3CCC[C@H](N4CCN(C)C(=O)C4)C3)[nH]c12 [compound 169] | 300 nM
CC(=O)N(C)C1CCN([C@@H]2CCC[C@@H](NC(=O)c3cc4c(F)ccc(C)c4[nH]3)C2)C1 (stereo partly drawn) [compound 385] | > 2000 nM
Cc1cccnc1C(NC(=O)c1cc2c(F)ccc(C)c2[nH]1)C1CC1 (stereo not drawn) [compound 462] | 6300 nM
Cc1cccnc1[C@H](NC(=O)c1cc2cccc(C)c2[nH]1)C1CC1 [compound 463] | 6400 nM
Cc1cccnc1C(NC(=O)c1cc2cccc(C)c2[nH]1)C1CC1 (stereo not drawn) [compound 475] | 8900 nM
Cc1cccc2cc(C(=O)Nc3ccccc3)[nH]c12 [compound 479] | 9500 nM
Cc1cccnc1C(NC(=O)c1cc2cc(F)cc(C)c2[nH]1)C1CC1 (stereo not drawn) [compound 497] | 13800 nM
Cc1cccc2cc(C(=O)N[C@H]3CC[C@@H](NC(=O)CCN)CC3)[nH]c12 [compound 592] | > 25000 nM
CC(=O)N(C)[C@H]1CCN([C@H]2CCC[C@@H](NC(=O)c3cc4c(F)ccc(C)c4[nH]3)C2)C1 [compound 841] | 100 nM
CC(=O)N(C)[C@H]1CCN([C@@H]2CCC[C@@H](NC(=O)c3cc4c(F)ccc(C)c4[nH]3)C2)C1 [compound 842] | > 2000 nM
Cc1ccc(F)c2cc(C(=O)N[C@@H]3CCC[C@@H](c4ccncc4)C3)[nH]c12 [compound 912] | > 2000 nM
Cc1ccc(F)c2cc(C(=O)N[C@@H]3CCC[C@H](c4ccncc4)C3)[nH]c12 [compound 913] | > 2000 nM
Cc1ccc(F)c2cc(C(=O)N[C@H]3CCC[C@@H](c4ccncc4)C3)[nH]c12 [compound 914] | 300 nM
Cc1ccc(F)c2cc(C(=O)N[C@H]3CCC[C@H](c4ccncc4)C3)[nH]c12 [compound 915] | > 2000 nM

same assay, conditions: Homo sapiens; A549 cells; read-out: SETD2 A549

Structure (SMILES) | IC50
Cc1ccc(F)c2cc(C(=O)Nc3cccc(-c4nnco4)c3)[nH]c12 [Cpd. No. 60, N-(3-(1,3,4-oxadiazol-2-yl)phenyl)-4-fluoro-7-methyl-1H-indole-2-carboxamide] | 100 nM
Cc1ccc(F)c2cc(C(=O)Nc3cc(F)cc4cnccc34)[nH]c12 [Cpd. No. 82, 4-fluoro-N-(7-fluoroisoquinolin-5-yl)-7-methyl-1H-indole-2-carboxamide] | 200 nM
Cc1cccnc1C(Cc1cnn(C)c1)NC(=O)c1cc2c(F)ccc(C)c2[nH]1 (stereo not drawn) [Cpd. No. 85, 4-fluoro-7-methyl-N-(2-(1-methyl-1H-pyrazol-4-yl)-1-(3-methylpyridin-2-yl)ethyl)-1H-indole-2-carboxamide] | 200 nM
Cc1cc(Cn2ccnc2)cnc1C(NC(=O)c1cc2c(F)ccc(C)c2[nH]1)C1CC1 (stereo not drawn) [Cpd. No. 161, N-((5-((1H-imidazol-1-yl)methyl)-3-methylpyridin-2-yl)(cyclopropyl)methyl)-4-fluoro-7-methyl-1H-indole-2-carboxamide] | 300 nM
Cc1ccc(F)c2cc(C(=O)Nc3cccc4c3cnn4[C@H]3CC[C@H](N(C)C)CC3)[nH]c12 [Cpd. No. 213, N-(1-((1r,4r)-4-(dimethylamino)cyclohexyl)-1H-indazol-4-yl)-4-fluoro-7-methyl-1H-indole-2-carboxamide] | 500 nM
CCc1ccc(C)c2[nH]c(C(=O)NC(CCC(=O)N3CCOCC3)c3ncccc3C)cc12 (stereo not drawn) [compound 485] | 10800 nM
Cc1nccnc1C(NC(=O)c1cc2cccc(C)c2[nH]1)C1CC1 (stereo not drawn) [compound 518] | 18900 nM
